From paper PMC7292393 (PLoS ONE, 2020)
“And” between values parts separate entries of the source, which are not always exact repeats. Equal values may be shown once. “Also recorded” adds a separate entry of the source. Read-outs that look alike come from different tables or passages of the source.

What was measured:
SUMO1^Δ15 = target: T1, SUMO1^Δ15 (Homo sapiens, UniProt P63165); assay: Differential scanning fluorimetry (DSF) thermal shift; format: binding; settings: 2 μM SUMO1^Δ15, fisetin 20 to 200 μM
T1 construct: encoding amino acids 1–97 of mature human SUMO1; made in house; host or cells: E. coli BL21 Rosetta (DE3)
Method: Here we used a variant of the human SUMO1 called SUMO1^Δ15 in which the N-terminal 15 amino acids of SUMO1 are removed. The first 15 amino acids of human SUMO1 are weakly conserved and reported to be unstructured, and so therefore might contribute to its instability. […] We next compared SUMO1^Δ15 directly with wild-type SUMO1.
Fluorescence-based thermal shift assays known as differential scanning fluorimetry (DSF) were performed following the general protocol described in [28]. In short, 20 μl reactions were prepared with 2 μM human SUMO1 or SUMO1^Δ15 protein exchanged in DSF buffer (50 mM Tris-Cl pH 8.0, 150 mM NaCl, 10% glycerol), 10X SYPRO Orange (ThermoFisher Scientific, Waltham, MA), and 0.3 μl of DMSO control or flavonoid dissolved in DMSO. PCR plates (white non-skirted, 96-well) were sealed with optical film, centrifuged, and incubated at 4 °C for 30 min prior to analysis. Thermal scanning (20°C for 30 s, followed by ramping from 20 °C to 90 °C at 0.5 °C/15 s) was performed using a real-time PCR setup (CFX384 Touch, Biorad, Hercules, CA) with filter sets for measurement of relative fluorescence units (RFU) at 0.5°C intervals. Tm was calculated from the maxima of the first derivative of RFU/temperature using GraphPad Prism7. For the HSF1 denaturation experiment, recombinantly expressed and affinity purified human HSF1 was exchanged in DSF buffer. […]

human SUMO1 [1] = target: T2, human SUMO1 (Homo sapiens, UniProt P63165); assay: SPR secondary screen / dose-dependent binding; parameters: key to SPR Screens 2°: ✓: dose-dependent saturation kinetics; ×: no indication of saturation kinetics
T2 construct: encoding amino acids 1–97 of mature human SUMO1; host or cells: E. coli BL21 Rosetta (DE3)

bovine ubiquitin = target: T3, bovine ubiquitin (Bos taurus, UniProt P0CG53); assay: Fluorescence quenching of fisetin; format: binding; settings: 0.5 μM fisetin, corrected for dilution
T3 construct: native bovine ubiquitin (U6253); purchased Sigma-Aldrich U6253
Method: (§1) The spectrum between 390–600 nm was measured with a PerkinElmer LS-55 fluorescence spectrometer. […] Excitation and emission slit wavelengths were 5 and 10 nm, respectively, with scan speed of 500 nm/min. […] Values were corrected for dilution as follows: Relative fluorescence values were calculated by subtracting fluorescence quenching observed upon addition of buffer alone.

human SUMO1 [2] = target: T2, human SUMO1; assay: Fluorescence quenching of fisetin; format: binding; settings: 0.5 μM fisetin, emission 511.5 nm, corrected for dilution
Method: as §1

human SUMO1 [3] = target: T2, human SUMO1; assay: Differential scanning fluorimetry (DSF) thermal shift; format: binding
human SUMO1 [4] = target: T2, human SUMO1; assay: Surface plasmon resonance (SPR) primary screen; format: binding;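 further: recombinant human SUMO1 amine-coupled to a sensor chip, blank activated and quenched reference flow cell, flavonoids injected 2 min then 1 min dissociation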
[5] = target: T4, sumoylation of tumor suppressor p53 by SUMO1 (Homo sapiens, UniProt P63165); assay: In vitro sumoylation (SUMOlink SUMO-1 Kit), Western blot; format: biochemical; settings: 300 μM fisetin, 30°C for 3 hr
T4 construct: purchased Active Motif 40120
Text: (§2) To this end, we performed in vitro sumoylation experiments in which the cellular sumoylation reaction was reconstituted using purified human SUMO1, E1 activating enzyme, E2 conjugating enzyme, and two putative protein substrates (human tumor suppressor p53 and human transcription factor HSF1). E1 activating enzyme functions by transferring active SUMO1 protein to the E2 conjugating enzyme Ubc9, which in turn attaches SUMO1 onto target protein substrates. Both p53 and HSF1 proteins are linked to sumoylation as well as to cancer pathways.
(§3) Proteins were separated by SDS-PAGE using 4–20% or 7.5% Mini-PROTEAN TGX Precast Protein Gels (Bio-Rad, Hercules, CA) followed by detection with Bio-Safe Coomassie Stain (Bio-Rad). For Western immunoblotting experiments, proteins in SDS-PAGE gels were transferred onto a PVDF membrane at 4°C using Mini Trans-Blot Cell (Bio-Rad), blocked with 5% nonfat milk for 1 hr at room T or overnight at 4°C and incubated with the following primary antibodies at indicated dilutions for 1 hr at room T: 1:10,000 HSF1 polyclonal antibody (Enzo Life Sciences ADI-SPA-901-F; Lausen, Switzerland), 1:4000 p53 rabbit antibody (SUMOlink SUMO-1 Kit), 1:5000 SUMO-1 rabbit antibody (SUMOlink SUMO-1 Kit). Secondary antibody incubation was performed for 1 hr at room T using 1:10,000 goat anti-rabbit IgG polyclonal antibody (Enzo Life Sciences, ADI-SAB-300). […]

[6] = target: T5, sumoylation of HSF1 by SUMO1 (Homo sapiens, UniProt P63165); assay: as above; format: biochemical; settings: 300 μM fisetin, 30°C for 3 hr
T5 construct: purchased Active Motif 40120; host or cells: HSF1 substrate made in house in E. coli BL21 Rosetta (DE3)
Text: as §2, §3

T2 sequence (P63165 1-97): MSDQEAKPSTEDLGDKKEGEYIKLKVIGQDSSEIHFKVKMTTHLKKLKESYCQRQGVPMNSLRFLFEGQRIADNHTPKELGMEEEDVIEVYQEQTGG
T4 sequence (P63165 1-97 limits assumed): as the sequence (P63165 1-97) above
T1 sequence (P63165 with tags, fused parts or gaps limits assumed): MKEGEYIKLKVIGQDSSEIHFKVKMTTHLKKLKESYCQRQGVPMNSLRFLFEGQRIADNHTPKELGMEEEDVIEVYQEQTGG
T5 sequence (P63165 1-97 limits assumed): as the sequence (P63165 1-97) above

O=c1c(O)c(-c2ccc(O)c(O)c2)oc2cc(O)ccc12 [Fisetin, 3,3',4',7-tetrahydroxyflavone]
dose-dependent effect on DSF thermogram of SUMO1^Δ15 (SUMO1^Δ15): thermal destabilization | saturation binding in SPR secondary screen (human SUMO1 [1]; Fig 2A-H): exhibited binding that approached saturation | Kd (human SUMO1 [1]; fisetin ~12 to 250 μM, Fig 2I, average of six replicates, read-out: Kd (SPR, extended range of concentrations)): 228 µM and ~228 µM | SPR Screens 2° (human SUMO1 [1]; five concentrations 31.25-500 μM): ✓ | Kd (human SUMO1 [1]; one-site hyperbola fit, 31.25-500 μM flavonoid, Fig 2A-C, read-out: Kd (SPR secondary screen)): 124 µM and ~124 µM | Kd (human SUMO1 [1]; range over the two experiments, Fig 2A and 2I, read-out: estimated Kd ranging (SPR)): 124 to 228 µM | quenching of fisetin fluorescence by ubiquitin (bovine ubiquitin): only marginal quenching | quenching of fisetin fluorescence by SUMO1 (human SUMO1 [2]): Saturable binding was observed | ΔTm at 300 µM (human SUMO1 [3]): < 2 °C | effect on DSF thermogram / thermal stability of SUMO1 (human SUMO1 [3]; 2 μM SUMO1, 300 μM flavonoid): cause unfolding of human SUMO1; also recorded: unfolding of the protein at ambient temperature | SPR Screens 1° (human SUMO1 [4]; 500 μM flavonoid in DMSO, cut-off of %RUmax of ~15): ✓ (%RUmax with binding activity above cut-off) | interaction in SPR primary screen (human SUMO1 [4]; 500 μM, %RUmax above threshold of ~15%): interacted with SUMO1 in the primary screen | %RUmax (human SUMO1 [4]; SPR primary screen, 500 μM flavonoid in DMSO, (Mean RU/RUmax)*100): 18.9% | sumoylation of p53 in vitro [5]: no SUMO conjugates of p53 were detected; also recorded: completely inhibits sumoylation | sumoylation of HSF1 in vitro [6]: failed to alter sumoylation
